Test results published in the OligoGym collection.
Several values for one entry are separate records, joined by “and”; a condition that tells them apart may be missing. Identical values can stand only once. After the bases stand the sugars from the 5' end (letter, count) and the backbone: PS all phosphorothioate, else s phosphorothioate and o phosphodiester by linkage. Methylation of C is not given here. e = 2'-O-(2-methoxyethyl) (MOE); k = constrained ethyl (cEt); d = 2'-deoxy (DNA)

Biological target: IRF4
Details: ASO

Row | Sequence | target mRNA inhibition (MM.1R, 1 µM) | target mRNA inhibition (SK-MEL-28, 4 µM) [%] | further results
1 | GAAGTTTACACTGGAT (sugars kkkdddddddddkeke, PS) | 49% |  | 
2 | ACAAGAACTGCTGTGT (sugars k3 d10 k3, PS) |  | 7 | 
3 | TCAAAGCGCACCGCAG (sugars k3 d10 k3, PS) |  | 43 | 
4 | ACGGAAGTTTACACTG (sugars kkdddddddddkekek, PS) | 21% |  | 
5 | TGGTATTTTTCCGTTC (sugars k3 d10 k3, PS) | 39% | 69 | target mRNA inhibition (MM.1R, 0.0625 µM): 6%; target mRNA inhibition (MM.1R, 0.074 µM): 13%; target mRNA inhibition (MM.1R, 0.222 µM): 6%; target mRNA inhibition (MM.1R, 0.25 µM): 20%; target mRNA inhibition (MM.1R, 0.666 µM): 24%; target mRNA inhibition (MM.1R, 2 µM): 51%; target mRNA inhibition (MM.1R, 4 µM): 73%
6 | CCCACGGACGGAGGCG (sugars k3 d10 k3, PS) |  | -9 | 
7 | ACGGAAGTTTACACTG (sugars kddddddddddkekek, PS) | 7% |  | 
8 | GTAAACTTGGCTGTGG (sugars k3 d10 k3, PS) |  | 18 | 
9 | CCGAATAGGACCCCTA (sugars k3 d10 k3, PS) |  | 32 | 
10 | ACTGCTTGAGGTTTTC (sugars kddddddddddkekek, PS) | 22% |  | 
11 | GGCGACCCCGTCGCAG (sugars k3 d10 k3, PS) |  | 30 | 
12 | TTAAAATATCGCCCAT (sugars k3 d10 k3, PS) |  | 32 | 
13 | TGTGCTTGCCAAGCCT (sugars k3 d10 k3, PS) | 38% and 49% |  | 
14 | GAGTCTTTGAGGCTGC (sugars k3 d10 k3, PS) |  | 34 | 
15 | GCAGTGATGTCAGGTT (sugars k3 d10 k3, PS) | 39% |  | 
16 | GGAGATCCTTTTTATT (sugars k3 d10 k3, PS) |  | 32 | 
17 | TACGACAACTTTCCTG (sugars k3 d10 k3, PS) |  | 41 | 
18 | GGCCCCAGCCAAGAAG (sugars k3 d10 k3, PS) |  | 8 | 
19 | CAAAATAGTCACTCAC (sugars k3 d10 k3, PS) |  | -3 | 
20 | GCCAAGAGGTGCGAGT (sugars k3 d10 k3, PS) |  | 35 | 
21 | TATGACCCAGTGCTCT (sugars k3 d10 k3, PS) |  | 40 | 
22 | AGGACAATGGAGATAC (sugars k3 d10 k3, PS) |  | 72 | 
23 | TCCTCAAAGTCATTGC (sugars k4 d8 k4, PS) |  | 10 | 
24 | GCCATTCGAGGTGATT (sugars k3 d10 k3, PS) |  | 56 | 
25 | CAGATAACGAGGTGCC (sugars k3 d10 k3, PS) |  | 30 | 
26 | ACTGCTTGAGGTTTTC (sugars kkdddddddddkdkdk, PS) | 19% |  | 

Row | Sequence | target mRNA inhibition (MM.1R, 1 µM) | target mRNA inhibition (SK-MEL-28, 4 µM) [%] | further results
27 | ATTCATGATGTATACC (sugars k3 d10 k3, PS) |  | 62 | 
28 | CCCAAAGAGAGTGGGT (sugars k3 d10 k3, PS) |  | 0 | 
29 | AAAGAGCTTGCAGGTC (sugars k3 d10 k3, PS) |  | 37 | 
30 | CTCTTAGGCACATCAA (sugars k3 d10 k3, PS) |  | 61 | 
31 | GTGATAGCTGAGCTGA (sugars kkddddddddddkeke, PS) | 35% |  | 
32 | CAAGTGTCTAAAGTCC (sugars kkddddddddddkeke, PS) | 16% and 17% |  | 
33 | GTTGCATGGCTAATGA (sugars k3 d10 k3, PS) |  | 61 | 
34 | GTAGGTAAGATCTCCA (sugars k3 d10 k3, PS) | 22% |  | 
35 | GTAGATCCTGCTCTGG (sugars k3 d10 k3, PS) |  | 45 | 
36 | CAAGCAGTGATGTCAG (sugars kdddddddddkekeke, PS) | 10% and 12% |  | 
37 | TCTTTAAAATATCGCC (sugars k3 d10 k3, PS) | -45% |  | 
38 | GGGACCCACGGACGGA (sugars k3 d10 k3, PS) |  | 9 | 
39 | AGCATTTTATCATCCG (sugars kkdddddddddkekek, PS) | 39% |  | 
40 | ATTAAAGAGCGCATTT (sugars k3 d10 k3, PS) |  | 13 | 
41 | CAAGGAGATCCACCTG (sugars k3 d10 k3, PS) |  | -21 | 
42 | CTTAGTCAGAATCTGT (sugars k3 d10 k3, PS) | 1% |  | 
43 | TCCGAGCTCGGCCCCC (sugars k3 d10 k3, PS) | -10% |  | 
44 | CAGTGATGTCAGGTTT (sugars kkkddddddddkekek, PS) | 56% |  | target mRNA inhibition (MM.1R, 0.074 µM): 19%; target mRNA inhibition (MM.1R, 0.222 µM): 40%; target mRNA inhibition (MM.1R, 0.666 µM): 56%; target mRNA inhibition (MM.1R, 2 µM): 74%
45 | CTGTATTTATGCCCTC (sugars k3 d10 k3, PS) |  | 60 | 
46 | GCCGATCATCAACTTC (sugars k3 d10 k3, PS) | 26% |  | 
47 | CCAAGGCTACAGGCAC (sugars k3 d10 k3, PS) |  | 63 | 
48 | TGTGGTTTCACATGAT (sugars k3 d10 k3, PS) | 21% |  | 
49 | GAGGAATGGCGGATAG (sugars k3 d10 k3, PS) |  | 31 | 
50 | GGCGCGGACGCACGGA (sugars k3 d10 k3, PS) | 10% |  | 
51 | CCTGGCGGCCTCCACG (sugars k3 d10 k3, PS) |  | -31 | 
